# Molecular target: T1, IRAK4 (Homo sapiens, UniProt Q9NWZ3)
# T1 construct: endogenous in cells; host or cells: OCI-LY10
# T1 sequence (Q9NWZ3 1-460): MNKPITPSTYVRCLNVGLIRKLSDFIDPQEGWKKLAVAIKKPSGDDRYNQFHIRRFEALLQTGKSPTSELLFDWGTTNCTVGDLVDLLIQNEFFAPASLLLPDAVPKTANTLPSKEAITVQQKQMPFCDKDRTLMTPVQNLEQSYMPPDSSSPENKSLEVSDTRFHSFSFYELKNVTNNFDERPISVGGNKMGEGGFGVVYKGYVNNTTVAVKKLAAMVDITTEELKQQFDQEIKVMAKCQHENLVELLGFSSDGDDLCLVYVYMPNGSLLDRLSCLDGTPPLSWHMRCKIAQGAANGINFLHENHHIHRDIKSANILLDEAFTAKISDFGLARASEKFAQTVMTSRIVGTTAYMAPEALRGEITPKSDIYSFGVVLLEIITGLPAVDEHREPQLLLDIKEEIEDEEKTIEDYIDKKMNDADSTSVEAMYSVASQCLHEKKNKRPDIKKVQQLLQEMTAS
# Test: IRAK4 MSD Degradation in OCI-LY10
# Type: cell-based
# Conditions: OCI-LY10 cells, Meso Scale Discovery, incubated 4 to 24 hours
# Experimental: Degradation of IRAK4 in OCI-LY10 was quantitatively measured using Meso Scale Discovery technology. OCI-LY10 cells were seeded in 96-well plates (Corning 3799) with a density of 300,000 cells per well in 100 μL fresh media. Compounds were then added to the assay plates with a final top concentration of 1 to 10 μM in a 1:3 dilution series with total of 8 doses. The assay plates were then incubated for 4 to 24 hours at 37° C. under 5% CO2. The assay plates were then centrifuged for 5 minutes and the cell pellets were treated with 100 μL/well RIPA lysis buffer (Boston BioProducts BP-115D) with proteinase inhibitors. To prepare MSD assay plates (Meso Scale Discovery Catalog number L15XA-3), the plates were coated with 2 μg/mL capture antibody (mouse Anti-IRAK4 antibody [2H9], ab119942) in PBS, at 40 μL/well. The plates were then incubated overnight at 4° C., washed 3 times with 150 μL/well TBST buffer (Cell Signaling Technology, Catalog number 9997S) and blocked with 150 μL/well blocking buffer (Meso Scale Discovery Catalog number R93BA-4). Cell lysates were then added to MSD assay plates and the plates were incubated at room temperature for 1 hour. The plates were then washed 3 times with 150 μL/well TBST buffer and […] primary detection antibody (rabbit Anti-IRAK4 antibody [Y279], from Abcam. Catalog number ab32511, 1 μg/mL). The assay plates were then incubated at room temperature for 1 hour, washed 3 times with 150 μL/well TBST buffer and 254/well secondary detection antibody, SULFO-TAG anti-rabbit antibody were added (anti rabbit antibody from Meso Scale Discovery, Catalog number R32AB-1, 1 μg/mL). The assay plates were then incubated at room temperature for 1 hour, washed 3 times with 150 μL/well TBST buffer, and 150 μL/well MSD reading buffer (Meso Scale Discovery catalog number R92TC-2) was added. The plates were then analyzed by a MSD reader (Meso Scale Discovery, Model Quick Plex SQ 120). The data was then analyzed by software Prism 7.0 from GraphPad and the dose-depended IRAK4 degradation were fit using a three-parameter logistic equation to calculate DC50.
# The letter codes for IRAK4 DC50 include: A (<0.01 μM); B (0.01-0.05 μM); C (0.05-0.1 μM); D (0.1-0.2 μM); and E (>0.2 μM).
row,Structure (SMILES),DC50 [nM]
1,COc1cc2nn([C@H]3CC[C@H](CN4CCC(c5cc(Cl)cc6c5n(C)c(=O)n6C5CCC(=O)NC5=O)CC4)CC3)cc2cc1NC(=O)c1cccc(C(F)(F)F)n1 (stereo partly drawn) [I-36],< 10
2,Cn1c(=O)n(C2CCC(=O)NC2=O)c2cccc(C3CCN(C[C@H]4CC[C@H](n5cc6cc(NC(=O)c7cccc(C(F)(F)F)n7)c(Cl)cc6n5)CC4)CC3)c21 (stereo partly drawn) [I-24],10 to 50
3,CC(C)Nc1cc(-c2ccc3cc(C#N)cnn23)ncc1C(=O)N[C@H]1CC[C@H](CN(C)C2CCN(c3cccc4c3n(C)c(=O)n4C3CCC(=O)NC3=O)CC2)CC1 (stereo partly drawn) [I-179],< 10
4,COc1cc2nn([C@H]3CC[C@H](CN4CCC(c5ccc(F)c6c5n(C)c(=O)n6C5CCC(=O)NC5=O)CC4)CC3)cc2cc1NC(=O)c1cccc(C(F)(F)F)n1 (stereo partly drawn) [I-51],< 10
5,COc1cc2nn([C@H]3C[C@H](CN4CCC(c5c(F)ccc6c5n(C)c(=O)n6C5CCC(=O)NC5=O)CC4)C3)cc2cc1NC(=O)c1cccc(C(F)(F)F)n1 (stereo partly drawn) [I-141],10 to 50
6,COc1cc2nc([C@H]3CC[C@H](CN4CCC(c5cccc6c5n(C)c(=O)n6C5CCC(=O)NC5=O)CC4)CC3)sc2cc1NC(=O)c1cncc(C#N)c1 (stereo partly drawn) [I-185],< 10
7,COc1cc2nn([C@H]3CC[C@H](CN4CCN(c5cccc6c(N7CCC(=O)NC7=O)cncc56)CC4)CC3)cc2cc1NC(=O)c1cncc(C#N)c1 [I-259],10 to 50
8,COc1cc2nn([C@H]3CC[C@H](CN4C5CCC4CN(c4cccc6c(N7CCC(=O)NC7=O)cncc46)C5)CC3)cc2cc1NC(=O)c1cccc(C(F)(F)F)n1 [I-219],< 10
9,COc1cc2nn([C@H]3CC[C@H](CN(C)C4CCN(c5cccc6c5n(C)c(=O)n6C5CCC(=O)NC5=O)CC4)CC3)cc2cc1-n1cc(-c2cccc(C(F)(F)F)n2)nn1 (stereo partly drawn) [I-100],> 200
10,CN(C[C@H]1CC[C@H](n2cc3cc(NC(=O)c4cccc(C(F)(F)F)n4)c(C(C)(C)O)cc3n2)CC1)C1CCN(c2ccc3c(N4CCC(=O)NC4=O)cncc3c2)CC1 [I-65],< 10
11,Cn1c(=O)n(C2CCC(=O)NC2=O)c2ccc(C3CCN(C[C@H]4CC[C@H](n5cc6cc(NC(=O)c7cccc(C(F)(F)F)n7)ncc6n5)CC4)CC3)c(Cl)c21 (stereo partly drawn) [I-178],> 200
12,COc1cc2nn([C@H]3CC[C@H](CN(C)C4CCN(c5cccc6c5n(C)c(=O)n6C5CCC(=O)NC5=O)CC4)CC3)cc2cc1NC(=O)c1cncc(C(F)(F)F)c1 (stereo partly drawn) [I-130],< 10
13,Cc1c(C2CCN(C[C@H]3CC[C@H](n4cc5cc(NC(=O)c6cccc(C(F)(F)F)n6)ccc5n4)CC3)CC2)ccc2c1n(C)c(=O)n2C1CCC(=O)NC1=O (stereo partly drawn) [I-202],> 200
14,COc1ccc2c(c1C1CCN(C[C@H]3CC[C@H](n4cc5cc(NC(=O)c6cncc(Cl)c6)ccc5n4)CC3)CC1)n(C)c(=O)n2C1CCC(=O)NC1=O (stereo partly drawn) [I-116],100 to 200
15,Cn1c(=O)n(C2CCC(=O)NC2=O)c2ccc(Cl)c(C3CCN(C[C@H]4CC[C@H](n5cc6cc(NC(=O)c7cccc(C(F)(F)F)n7)ccc6n5)CC4)CC3)c21 (stereo partly drawn) [I-106],10 to 50
16,COc1cc2nn([C@H]3CC[C@H](CN(C)C4CCN(c5cccc6c5n(C)c(=O)n6C5CCC(=O)NC5=O)CC4)CC3)cc2cc1NC(=O)c1ccc(C(F)(F)F)cn1 (stereo partly drawn) [I-16],10 to 50
17,C[C@@H]1CN(c2cccc3c2n(C)c(=O)n3C2CCC(=O)NC2=O)CCN1C[C@H]1CC[C@H](n2cc3cc(NC(=O)c4cccc(C(F)(F)F)n4)c(C(C)(C)O)cc3n2)CC1 (stereo partly drawn) [I-226],< 10
18,"CC(C)(O)c1cc2nn([C@H]3CC[C@H](CN4CCC(c5cccc6c(N7CCC(=O)NC7=O)cncc56)CC4)CC3)cc2cc1NC(=O)c1cccc(C(F)(F)F)n1 [I-78, N-[2-[4-[[4-[4-(2,4-dioxohexahydropyrimidin-1-yl)-8-isoquinolyl]-1-piperidyl]methyl]cyclohexyl]-6-(1-hydroxy-1-methyl-ethyl)indazol-5-yl]-6-(trifluoromethyl)pyridine-2-carboxamide]",< 10
19,O=C1CCN(c2cncc3cc(N4CCN(C[C@H]5CC[C@H](n6cc7cc(NC(=O)c8cccc(C(F)(F)F)n8)ccc7n6)CC5)CC4)ccc23)C(=O)N1 [I-161],> 200
20,COc1cc2nn([C@H]3CC[C@H](CN4CCC(c5cccc6c5n(C)c(=O)n6C5CCC(=O)NC5=O)CC4)CC3)cc2cc1NC(=O)c1ccccc1F (stereo partly drawn) [I-174],< 10
21,COc1cc2nn([C@H]3CC[C@H](CN(C)C4CCN(c5cccc6c5n(C)c(=O)n6C5CCC(=O)NC5=O)CC4)CC3)cc2cc1NC(=O)c1cncc(F)c1 (stereo partly drawn) [I-81],< 10

# More lines, now with the values ahead:
row,DC50 [nM],Structure (SMILES)
1,< 10,COc1cc2nn([C@H]3CC[C@H](CN4CCC(c5cccc6c5n(C)c(=O)n6C5CCC(=O)NC5=O)CC4(C)C)CC3)cc2cc1NC(=O)c1cccc(C(F)(F)F)n1 (stereo partly drawn) [I-424]
2,100 to 200,CC(C)(O)c1cc2nc([C@H]3CC[C@H](C(=O)N4CCC5(CC4)CC(CCNc4cccc6c4C(=O)N(C4CCC(=O)NC4=O)C6=O)C5)CC3)sc2cc1NC(=O)c1cccc(C(F)F)n1 (stereo partly drawn) [I-457]
3,> 200,CC(C)Nc1cc(-n2ccc3cc(C(F)(F)F)cnc32)ncc1C(=O)N[C@H]1CC[C@H](CN2CCC(c3cccc4c3n(C)c(=O)n4C3CCC(=O)NC3=O)CC2)CC1 (stereo partly drawn) [I-368]
4,< 10,CN(CCCCNc1cccc2c1C(=O)N(C1CCC(=O)NC1=O)C2=O)C[C@H]1CC[C@H](c2nc3cc(C(C)(C)O)c(NC(=O)c4cccc(C(F)(F)F)n4)cc3s2)CC1 (stereo partly drawn) [I-447]
5,50 to 100,CC(C)(O)c1cc2nc([C@H]3CC[C@H](C(=O)N4CC5(CC(CCNc6cccc7c6C(=O)N(C6CCC(=O)NC6=O)C7=O)C5)C4)CC3)sc2cc1NC(=O)c1cccc(C#N)n1 (stereo partly drawn) [I-436]
6,< 10,COc1cc2nn([C@H]3CC[C@H](CN4CCN(c5cccc6c5n(C)c(=O)n6C5CCC(=O)NC5=O)CC4)CC3)cc2cc1NC(=O)c1ccnc(C(F)(F)F)n1 (stereo partly drawn) [I-298]
7,100 to 200,CC(C)(O)c1cc2nc([C@H]3CC[C@H](C(=O)N4CCC5(CC4)CC(CCNc4cccc6c4C(=O)N(C4CCC(=O)NC4=O)C6=O)C5)CC3)sc2cc1NC(=O)c1cccc(C#N)n1 (stereo partly drawn) [I-430]
8,< 10,COc1cc2nn([C@H]3CC[C@H](CN4CCN(c5ccc(F)c6c(N7CCC(=O)NC7=O)cncc56)CC4)CC3)cc2cc1NC(=O)c1cccc(C(F)(F)F)n1 [I-311]
9,< 10,COc1cc2nn([C@H]3CC[C@H](CN4CC=C(c5cccc6c5n(C)c(=O)n6C5CCC(=O)NC5=O)C4)CC3)cc2cc1NC(=O)c1cccc(C(F)(F)F)n1 (stereo partly drawn) [I-266]
10,10 to 50,COc1cc2nn([C@H]3CC[C@H](CN4CCN(c5cccc6c(N7CCC(=O)NC7=O)ncnc56)CC4)CC3)cc2cc1NC(=O)c1cccc(C(F)(F)F)n1 [I-380]
11,10 to 50,CC(C)Nc1cc(-c2ccc3cc(C#N)cnn23)ncc1-c1cn([C@H]2CC[C@H](CN3CCN(c4cccc5c4n(C)c(=O)n5C4CCC(=O)NC4=O)CC3)CC2)nn1 (stereo partly drawn) [I-411]
12,< 10,CC(C)Nc1cc(-n2ccc3cc(C#N)cnc32)ncc1C(=O)N[C@H]1CC[C@H](CN2CCN(c3cccc4c3n(C)c(=O)n4C3CCC(=O)NC3=O)CC2)CC1 (stereo partly drawn) [I-361]
13,< 10,COc1cc2nn([C@H]3CC[C@H](CN4CCN(c5cccc6c(N7CCC(=O)NC7=O)ccnc56)CC4)CC3)cc2cc1NC(=O)c1cccc(C(F)(F)F)n1 [I-382]
14,< 10,Cc1ccc2c(c1C1CCN(C[C@H]3CC[C@H](n4cc5cc(NC(=O)c6cccc(C#N)n6)ccc5n4)CC3)CC1)n(C)c(=O)n2C1CCC(=O)NC1=O (stereo partly drawn) [I-323]
15,< 10,COc1cc2nn([C@H]3CC[C@H](CN4CCN(c5cc(F)cc6c(N7CCC(=O)NC7=O)cncc56)CC4)CC3)cc2cc1NC(=O)c1cccc(C(F)(F)F)n1 [I-413]

# From patent publication US12150995B2, “IRAK degraders and uses thereof” (Kymera Therapeutics, Inc., priority 2020, dated 2024)
